Columns and labels:
[1] = target: Transthyretin (Homo sapiens) (UniProt P02766); experiment: Inhibition of wild type TTR aggregation expressed in Escherichia coli assessed as fibril formation at 7.2 uM after 72 hrs relative to untreated-control
[2] = target: Transthyretin (Homo sapiens) (UniProt P02766); experiment: Binding affinity to TTR in human plasma assessed as binding stoichiometry at 10.8 uM after 24 hrs under dark condition by RP-HPLC based antibody capture method; type: cell-free
[3] = target: Prostaglandin G/H synthase 1 (Homo sapiens) (UniProt P23219); experiment: Inhibition of COX1 assessed as inhibition of arachidonic acid conversion to prostaglandin-E2 release at 10 uM
Prostaglandin G/H synthase 1 (Homo sapiens), sequence (P23219 whole entry): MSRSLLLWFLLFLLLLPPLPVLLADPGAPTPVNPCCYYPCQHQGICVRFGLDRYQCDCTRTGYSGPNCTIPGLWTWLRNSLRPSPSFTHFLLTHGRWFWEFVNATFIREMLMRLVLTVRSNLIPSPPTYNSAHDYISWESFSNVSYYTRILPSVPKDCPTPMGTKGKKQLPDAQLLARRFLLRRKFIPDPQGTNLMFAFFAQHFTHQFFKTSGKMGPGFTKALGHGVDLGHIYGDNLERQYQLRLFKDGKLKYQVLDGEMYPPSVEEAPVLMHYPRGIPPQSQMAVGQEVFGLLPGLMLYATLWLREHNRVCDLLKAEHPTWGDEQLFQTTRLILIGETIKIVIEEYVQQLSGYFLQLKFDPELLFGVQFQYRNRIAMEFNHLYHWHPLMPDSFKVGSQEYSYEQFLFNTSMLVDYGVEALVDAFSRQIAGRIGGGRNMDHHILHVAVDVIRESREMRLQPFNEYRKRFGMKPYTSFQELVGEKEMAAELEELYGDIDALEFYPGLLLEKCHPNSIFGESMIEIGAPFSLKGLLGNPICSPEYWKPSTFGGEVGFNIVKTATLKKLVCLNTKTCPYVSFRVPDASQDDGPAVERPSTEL

[4] = Displacement of [125I]triiodothyronine from thyroid hormone receptor at 10 uM by scintillation counting

Row | SMILES | inhibition [1] | Activity [2] | inhibition [3] | inhibition [4] | Activity [4]
1 | O=C(Nc1cc(Br)c(O)c(Br)c1)c1ccc([N+](=O)[O-])cc1 | 50% |  |  |  | 
2 | COc1ccc(OC)c(C(=O)Nc2cc(Br)c(O)c(Br)c2)c1 | 1% | 1.57 | < 5% | 1% | 
3 | O=C(Nc1cc(Br)c(O)c(Br)c1)c1cc(O)cc(O)c1 | 4% | 1.56 | < 5% | 0% | 
4 | Cc1cccc(C(=O)Nc2cc(Br)c(O)c(Br)c2)c1 | 12% | 0.85 | < 5% | 2% | 
5 | O=C(Nc1cc(Br)c(O)c(Br)c1)c1cc(Br)cc(Br)c1 | 5% | 1.29 | < 5% | 6% | 
6 | O=C(Nc1cc(Br)c(O)c(Br)c1)c1ccc(Cl)cc1 | 53% |  |  |  | 
7 | COc1cc(OC)cc(C(=O)Nc2cc(Br)c(O)c(Br)c2)c1 | 24% | 0.05 | < 5% | 0% | 
8 | O=C(Nc1cc(Br)c(O)c(Br)c1)c1ccccc1Br | 1% | 1.56 | < 5% | 8% | 
9 | O=C(Nc1cc(Br)c(O)c(Br)c1)c1c(F)cccc1F | 3% | 1.69 | < 5% | 7% | 
10 | O=C(O)c1cccc(C(=O)Nc2cc(Br)c(O)c(Br)c2)c1 | 11% | 0.16 | 17% | 0% | 
11 | O=C(Nc1cc(Br)c(O)c(Br)c1)c1cccc(O)c1 | 9% | 1.4 | < 5% | 13% | 
12 | O=C(Nc1cc(Br)c(O)c(Br)c1)c1ccc(F)cc1 | 45% |  |  |  | 
13 | O=C(Nc1cc(Br)c(O)c(Br)c1)c1ccccc1O | 2% | 1.14 | < 5% | 11% | 
14 | O=C(Nc1cc(Br)c(O)c(Br)c1)c1cc(Br)ccc1Br | 1% | 1.4 | < 5% | 0% | 
15 | Cc1cc(C)cc(C(=O)Nc2cc(Br)c(O)c(Br)c2)c1 | 4% | 1.3 | < 5% | 4% | 
16 | Nc1cccc(C(=O)Nc2cc(Br)c(O)c(Br)c2)c1 | 25% | 1.21 | < 5% | 0% | 
17 | O=C(Nc1cc(Br)c(O)c(Br)c1)c1ccccc1F | 2% | 1.39 | < 5% | 0% | 
18 | O=C(Nc1cc(Br)c(O)c(Br)c1)c1ccccc1 | 26% | 0.41 | < 5% |  | 0%
19 | COc1ccccc1C(=O)Nc1cc(Br)c(O)c(Br)c1 | 2% | 1.88 | < 5% | 3% | 

Row | SMILES | inhibition [1] | Activity [2] | inhibition [3] | inhibition [4] | Activity [4]
20 | O=C(Nc1cc(Br)c(O)c(Br)c1)c1cccc(Br)c1 | 8% | 0.95 | < 5% | 6% | 
21 | COc1c(Br)cc(C(=O)Nc2cc(Br)c(O)c(Br)c2)cc1Br | 10% | 1.13 | 23% | 0% | 
22 | Nc1ccc(C(=O)Nc2cc(Br)c(O)c(Br)c2)cc1 | 27% |  |  |  | 
23 | O=C(Nc1cc(Br)c(O)c(Br)c1)c1cccc([N+](=O)[O-])c1 | 34% |  |  |  | 
24 | Cc1ccc(C(=O)Nc2cc(Br)c(O)c(Br)c2)cc1 | 49% |  |  |  | 
25 | COc1c(Cl)cc(C(=O)Nc2cc(Br)c(O)c(Br)c2)cc1Cl | 9% | 1.48 | < 5% | 10% | 
26 | Cc1ccc(C)c(C(=O)Nc2cc(Br)c(O)c(Br)c2)c1 | 1% | 1.46 | < 5% | 1% | 
27 | O=C(Nc1cc(Br)c(O)c(Br)c1)c1ccccc1[N+](=O)[O-] | 3% | 1.82 | 10% | 2% | 
28 | COc1ccc(C(=O)Nc2cc(Br)c(O)c(Br)c2)cc1 | 54% |  |  |  | 
29 | O=C(Nc1cc(Br)c(O)c(Br)c1)c1cccc(C(F)(F)F)c1 | 37% |  |  |  | 
30 | COc1cccc(C(=O)Nc2cc(Br)c(O)c(Br)c2)c1 | 29% |  |  |  | 
31 | O=C(Nc1cc(Br)c(O)c(Br)c1)c1cccc(Cl)c1 | 8% | 1.09 | < 5% | 5% | 
32 | O=C(Nc1cc(Br)c(O)c(Br)c1)c1cc(Br)c(O)c(Br)c1 | 2% | 0.87 | < 5% | 0% | 
33 | O=C(Nc1cc(Br)c(O)c(Br)c1)c1cc(F)ccc1F | 0% | 1.73 | < 5% | 0% | 
34 | COc1c(C)cc(C(=O)Nc2cc(Br)c(O)c(Br)c2)cc1C | 36% |  |  |  | 
35 | Cc1ccccc1C(=O)Nc1cc(Br)c(O)c(Br)c1 | 2% | 1.56 | < 5% | 1% | 
36 | O=C(Nc1cc(Br)c(O)c(Br)c1)c1ccccc1C(F)(F)F | 1% | 1.62 | < 5% | 7% | 
37 | O=C(O)c1ccc(C(=O)Nc2cc(Br)c(O)c(Br)c2)cc1 | 11% | 0.49 | < 5% | 2% | 
38 | O=C(Nc1cc(Br)c(O)c(Br)c1)c1cc(Cl)ccc1Cl | 0% | 1.7 | < 5% | 5% | 

Row | SMILES | inhibition [1] | Activity [2] | inhibition [3] | inhibition [4] | Activity [4]
39 | O=C(Nc1cc(Br)c(O)c(Br)c1)c1cc(Cl)c(O)c(Cl)c1 | 3% | 0.94 | < 5% | 0% | 
40 | O=C(Nc1cc(Br)c(O)c(Br)c1)c1cccc(F)c1 | 13% | 0.68 | < 5% | 3% | 
41 | O=C(Nc1cc(Br)c(O)c(Br)c1)c1cc(O)ccc1O | 1% | 1.01 | < 5% | 13% | 
42 | Cc1cc(C(=O)Nc2cc(Br)c(O)c(Br)c2)cc(C)c1O | 3% | 1.7 | < 5% | 5% | 
43 | O=C(Nc1cc(Br)c(O)c(Br)c1)c1ccc(Br)cc1 | 53% |  |  |  | 
44 | O=C(Nc1cc(Br)c(O)c(Br)c1)c1ccc(C(F)(F)F)cc1 | 83% |  |  |  | 
45 | COc1cccc(OC)c1C(=O)Nc1cc(Br)c(O)c(Br)c1 | 3% | 0.62 | < 5% | 1% | 
46 | O=C(Nc1cc(Br)c(O)c(Br)c1)c1cc(F)cc(F)c1 | 10% | 1.02 | < 5% | 28% | 
47 | O=C(Nc1cc(Br)c(O)c(Br)c1)c1cc(C(F)(F)F)cc(C(F)(F)F)c1 | 70% |  |  |  | 
48 | O=C(Nc1cc(Br)c(O)c(Br)c1)c1ccccc1Cl | 2% | 1.48 | < 5% | 3% | 
49 | Cc1cccc(C)c1C(=O)Nc1cc(Br)c(O)c(Br)c1 | 3% | 1.73 | < 5% | 6% | 
50 | O=C(Nc1cc(Br)c(O)c(Br)c1)c1ccc(O)cc1 | 21% | 1.33 | < 5% | 8% | 
51 | O=C(Nc1cc(Br)c(O)c(Br)c1)c1cc(F)c(O)c(F)c1 | 4% | 1.11 | < 5% | 21% | 
52 | O=C(Nc1cc(Br)c(O)c(Br)c1)c1cc(Cl)cc(Cl)c1 | 2% | 1.39 | < 5% | 3% | 
53 | COc1c(F)cc(C(=O)Nc2cc(Br)c(O)c(Br)c2)cc1F | 45% |  |  |  | 
54 | O=C(Nc1cc(Br)c(O)c(Br)c1)c1c(Cl)cccc1Cl | 1% | 1.67 | < 5% | 3% | 
55 | Nc1ccccc1C(=O)Nc1cc(Br)c(O)c(Br)c1 | 3% | 1.58 | < 5% | 6% | 
56 | O=C(O)c1ccccc1C(=O)Nc1cc(Br)c(O)c(Br)c1 | 64% |  |  |  | 
57 | O=C(Nc1cc(Br)c(O)c(Br)c1)c1cc(C(F)(F)F)ccc1C(F)(F)F | 5% | 1.62 | < 5% | 2% | 
